Measured values: patent US20250255851A1, “SOLID FORMS OF AN ALDOSTERONE SYNTHASE INHIBITOR” (Boehringer Ingelheim International GmbH, priority 2024, published 2025)
Values belong to the molecule of their own block, whether it stands above or below them.

Assays:
Type in all cases: physicochemical
[1] = Storage stability of solid form samples at controlled temperature and relative humidity; details: at least 9 months at 25° and 60% and at least 6 months at 40° and 75% relative humidity; both storage conditions
Experimental: Samples of Form I were maintained for at least 9 months at 25°, and 60% and at least 6 months at 40° and 75% relative humidity.
Samples of Form X were maintained for at least 9 months at 25°, and 60% and at least 6 months at 40° and 75% relative humidity.

[2] = Dynamic Vapor Sorption (DVS) water sorption isotherm
Experimental: Water sorption isotherms are determined using a dynamic vapor sorption system (Advantage 1, DVS, London, UKDVS Intrinsic Plus, Surface Measurement Systems, Allentown, PA). Approximately 5-10 mg of solid is weighed into a tared aluminum pan. […] Equilibration criteria are dm/dt of 0.002% over 5 minutes or 360 minutes at a specified % RH. Each sample is equilibrated at each RH step for at least 60 min, and equilibrium is assumed if weight increase is less than 0.1% within one minute, and the maximum duration on each RH is 6 hours. Therefore, each sample is held at a given RH for 1 to 6 hours depending on how fast the equilibrium is reached. Exemplary DVS of the compounds of the invention are found in the Figures.

[3] = Stability of crystalline form (resistance to change in crystalline form)
Source text: However, these solvate of Compound 1 are generally not as stable (for example, resistant to change in crystalline form) as Form I and Form X. This lack of stability generally requires special processing and storage conditions for the solvates, thus making them less desirable as a component of a solid form of a pharmaceutical preparation. […] Alternatively, processes for preparing Compound 1 may involve formation of a crystalline solvate form of Compound 1 as an intermediate step prior to final preparation of Form I or Form X. For example, the purification and/or isolation of the crystalline solvates of Compound 1 may be used to remove impurities prior to conversion of the crystalline solvates to Form I and/or Form X using methods described herein.
Despite the lower stability of the other crystalline forms of Compound 1 (Forms II, Ill, IV, VI, VII and IX), the other crystalline forms are still useful as intermediates to prepare Form I and/or Form X as described herein.

[4] = Biopharmaceutics Classification System (BCS) classification

impurity levels after storage [1]: no increase in impurity levels | particle size distribution after storage [1]: no change in particle sized distribution | solid form after storage [1]: no change in solid form | water content after storage [1]: no increase in water content | water uptake (DVS) ([2]; at 95% Rh during the second cycle, 25° C.): about 0.4 % (wt.) | hygroscopicity (from DVS plot) ([2]; second DVS cycle): non-hygroscopic | relative stability of crystalline form (resistance to change in form) ([3]; compared with Form II, Form III and the crystalline solvate forms): more stable | BCS class [4]: class 1
Compound: C[C@]1(CO)Cc2ncn(-c3ccc(C#N)c(Cl)c3)c2C(=O)O1 [Form I, 2-chloro-4-[(6R)-6-(hydroxymethyl)-6-methyl-4-oxo-3H,4H,6H,7H-pyrano[3,4-d]imidazol-3-yl]benzonitrile]

conversion of crystalline form ([3]; at elevated temperature and/or under high humidity): convert to Form I and/or Form X
Compound: C[C@]1(CO)Cc2ncn(-c3ccc(C#N)c(Cl)c3)c2C(=O)O1 [Form IV, 2-chloro-4-[(6R)-6-(hydroxymethyl)-6-methyl-4-oxo-3H,4H,6H,7H-pyrano[3,4-d]imidazol-3-yl]benzonitrile]

Compound: C[C@]1(CO)Cc2ncn(-c3ccc(C#N)c(Cl)c3)c2C(=O)O1 [Form VI, 2-chloro-4-[(6R)-6-(hydroxymethyl)-6-methyl-4-oxo-3H,4H,6H,7H-pyrano[3,4-d]imidazol-3-yl]benzonitrile]
solid form transformation during DVS (solvent replaced by water) ([2]; DVS cycles, 25° C.): transformed to a mixture of Form I and Form III | mass stability over humidity range (DVS profile) ([2]; sharp descending step when 80% RH was reached): stable over a wide humidity range from RH=0 to the 80%

water uptake (DVS) ([2]; at 90% Rh during the second cycle, 25° C.): about 0.07%
Compound: C[C@]1(CO)Cc2ncn(-c3ccc(C#N)c(Cl)c3)c2C(=O)O1 [Form X, 2-chloro-4-[(6R)-6-(hydroxymethyl)-6-methyl-4-oxo-3H,4H,6H,7H-pyrano[3,4-d]imidazol-3-yl]benzonitrile]
